The values that follow are results of earlier work, collected in patent US20090247603A1, “Stabilized pharmaceutical compositions comprising an HMG-CoA reductase inhibitor” (Orbus Pharma, Inc., priority 2005, published 2009).

The conditions of the series: following oral administration.

With `CC(C)c1c(C(=O)Nc2ccccc2)c(-c2ccccc2)c(-c2ccc(F)cc2)n1CC[C@@H](O)C[C@@H](O)CC(=O)[O-].CC(C)c1c(C(=O)Nc2ccccc2)c(-c2ccccc2)c(-c2ccc(F)cc2)n1CC[C@@H](O)C[C@@H](O)CC(=O)[O-].[Ca+2]` (relative stereo) [atorvastatin calcium, (R—(R*,R*))-2-(4-fluorophenyl)-[beta],[delta]-dihydroxy-5-(1-methylethyl)-3-phenyl-4((phenylamino)carbonyl)-1H-pyrole-1-heptanoic acid hemi calcium salt], the “dose recovered in urine” value is given as “Less than 2%”.
